# Measurements published in US11091429B2, “Organic compounds” (Givaudan SA, priority 2012, dated 2021).
# Tests used:
# [1] = Test in peach flavoured drink; conditions: 1 ppm; water, 8% sugar, 0.1% citric acid, peach flavour 0.05%
# Protocol: (§1) Samples were prepared and evaluated by expert tasters. Tasters were asked to describe the samples focusing on authentic taste, mouthfeel, fullness, salty-ness, salivation, umami, sweetness, juiciness, richness, long lastingness and fattiness.
# Test in Peach Flavoured Drink:
# Base is water, 8% sugar, 0.1% citric acid, and proprietary peach flavour at 0.05%
# (§2) Samples were evaluated by expert tasters. Tasters were asked to describe the samples focusing on authentic taste, mouthfeel, fullness, salty-ness, salivation, umami, sweetness, juiciness, richness, long lastingness and fattiness.
# Comparison in a Peach Drink
# Base is water, 8% sugar, 0.1% citric acid, proprietary peach flavour at 0.05%
# (§3) Samples were evaluated by expert tasters. Tasters were asked to describe the samples focusing on authentic taste, mouthfeel, fullness, salivation, salty-ness, umami, sweetness, juiciness, richness, long lastingness and fattiness.
# [2] = Tasting in mango juice drink, 1% clear mango juice; conditions: 8% sucrose, 0.1% citric acid, mango flavour 0.05%
# Protocol: Comparison in a Mango Juice Drink
# Base is 8% sucrose, 0.1% citric acid, 1% clear mango juice, and a proprietary mango flavour at 0.05%.
# as §2
# Base is water, 8% sucrose, 0.1% citric acid, 1% clear mango juice, proprietary mango flavour @ 0.05%
# as §3
# Base is water, 8% sucrose, 0.1% citric acid, 1% clear mango juice, proprietary mango flavour @0.05%
# (§4) Samples were evaluated by expert tasters. Tasters were asked to describe the samples focusing on authentic taste, mouthfeel, fullness, salty-ness, salivation, umami, sweetness, juiciness, richness, long lastingness and fattiness
# Base is 8% sucrose, 0.1% citric acid, 1% clear mango juice, proprietary mango flavour @ 0.05%
# (§5) Samples were evaluated by expert tasters. Tasters were asked to describe the samples focusing on authentic taste, mouth feel, fullness, salivation, salty-ness, umami, sweetness, juiciness, richness, long lastingness and fattiness
# Base is water, 8% sucrose, 0.1% citric acid, 1% clear mango juice, proprietary mango flavour @ 0.05%.
# Test in a Mango Juice Drink
# [3] = Tasting in strawberry drink; conditions: 7% sucrose, 0.1% citric acid, strawberry flavour 0.015%
# Protocol: as §1
# Comparison in a Strawberry Drink
# Base is 7% sucrose, 0.1% citric acid, and a proprietary strawberry flavour @ 0.015%
# as §2
# Base is water, 7% sucrose, 0.1% citric acid, proprietary strawberry flavour @ 0.015%
# as §3
# Test in a Strawberry Drink
# Base is 7% sucrose, 0.1% citric acid, proprietary strawberry flavour @ 0.015%
# [4] = Tasting in vanilla milk 0.15% fat; conditions: 1 ppm, 4% sucrose, Vaniline 10 ppm + vanilla extract 0.03%
# Protocol: as §1
# Base: Milk 0.15% fat, sweetened with 4% sucrose by weight, flavoured with proprietary
# Vaniline flavour @ 10 ppm+Vanilla ext. @ 0.03%
# as §2
# Comparison in a Vanilla Milk Drink
# Vaniline @ 10 ppm+Vanilla extract @ 0.03%
# Base: Milk 0.15% fat, sweetened with 4% sucrose by weight, flavoured with proprietary Vaniline @ 10 ppm+Vanilla extract @ 0.03%
# [5] = Tasting in Maggi beef bouillon; conditions: Maggi beef bouillon 1 tablet in 500 ml of hot water
# Protocol: as §1
# Comparison in Beef Bouillon
# Base is Maggi beef bouillon 1 tablet in 500 ml of hot water
# as §2, §3, §4, §5
# [6] = Tasting in strawberry flavoured sugar sweetened yoghurt; conditions: 2 ppm, 1.5% fat yoghurt, 8% sucrose, strawberry flavour 0.015%
# Protocol: Strawberry Flavoured Sugar Sweetened Yoghurt
# In a 1.5% fat yoghurt base, sweetened with 8% sucrose by weight, flavoured with a proprietary strawberry flavour @ 0.015% several different N-acyl aminoacids were added.
# as §1
# Test in a Strawberry Yoghurt
# Base: Yoghurt 1.5% fat yoghurt, 8% sucrose, proprietary strawberry flavour @ 0.015%
# as §3
# [7] = Tasting in chicken bouillon; conditions: 0.7% salt, 0.5% fat
# Protocol: (§6) The following formulations were prepared and tasted by trained panelists.
# Standard Chicken bouillon base, 0.7% salt, 0.5% fat
# Samples were prepared and evaluated by expert tasters. Tasters were asked to describe the samples focusing on authentic taste, mouthfeel, fullness, salivation, salty-ness, umami, sweetness, juiciness, richness, long lastingness and fattiness.
# Test in Soups and Bouillons
# Standard Chicken Bouillon Base
# Test in orange beverage = conditions: 1 ppm; water, 7% sugar (8% sucrose elsewhere in the source), 0.1% citric acid, orange flavour 0.06%
# Protocol: as §2
# Base is water, 7% sugar, 0.1% citric acid, proprietary orange flavour @ 0.06%.
# as §4
# Base is water, 7% sugar, 0.1% citric acid, proprietary orange flavour @ 0.06%
# as §5
# Samples were evaluated by expert tasters. Tasters were asked to describe the samples focusing on authentic taste, mouthfeel, fullness, salivation, sweetness, juiciness, richness, long lastingness and fattiness
# Comparison in an Orange Drink
# Base: water, 8% sucrose, 0.1% citric acid, proprietary orange flavour @ 0.06%.
# [8] = Tasting in beef bouillon base; conditions: 0.5 PPM in beef bouillon base 1.0% salt, 0.5% fat
# Protocol: as §6
# Beef Bouillon base 1.0% salt, 0.5% fat
# [9] = Test in chocolate flavoured drink; conditions: 0.5 ppm; water, 4% sucrose, chocolate flavour 0.03%
# Protocol: as §1
# Test in Chocolate Flavoured Drink:
# Base: Water, 4% sucrose, proprietary chocolate flavor at 0.03%
# as §2
# Test in Chocolate Flavoured Drink Flavoured
# Base: Water, 4% sucrose, proprietary chocolate flavour @ 0.03%
# [10] = Test in pear flavoured drink; conditions: 0.5 ppm; water, 7% sugar, 0.1% citric acid, pear flavour 0.025%
# Protocol: as §1
# Test in Pear Flavoured Drink:
# Base: water, 7% sugar, 0.1% citric acid, proprietary pear flavour at 0.025%
# as §2
# Comparison in a Pear Drink
# Base is water, 8% sugar, 0.1% citric acid, proprietary pear flavour at 0.025%
# [11] = 0.2 PPM in chicken bouillon base
compound,measurement,setting,value
"CCCCCCCCCCCCCCCC(=O)N[C@H](C(=O)O)C(C)C [C16:0-val, N-palmitoyl-L-valine]",tasting result,[1],very juicy
"CCCCCCCCCCCCCCCCCC(=O)NC(CCC(=O)O)C(=O)O (centres unmarked) [C18:0-glu, N-stearoyl-Glu]",tasting result,[2]; 1 ppm,"fatty, full, sweet juicy"
same,tasting result,[3]; 0.5 ppm,"fruity, juicy, long lasting"
same,tasting result,[4],"full, fatty, whipped cream like"
CCCCCCCCCCCCCCCC(=O)NCCC(=O)O [C16:0-beta ala],tasting result,[2]; 2 ppm,more juicy
same,tasting result,[5]; 2 ppm,more salty salivating umami
"CCCCCCCCCCCCCCCC(=O)N1CCCC1C(=O)O (centres unmarked) [C16:0-pro, N-palmitoyl-Pro]",tasting result,[2]; 1 ppm,"overripe, orange like, long lasting after taste"
same,tasting result,[5]; 1 ppm,"more salty, full, darker, more meat-like"
CCCCCCCCCCCCCCCCCC(=O)NCCCC(=O)O [C18:0-gaba],tasting result,[6],"juicy full, jammy"
same,tasting result,[3]; 0.5 ppm,"mild creamy, fruity, juicy and long lasting"
"CC(C)=CCC/C(C)=C/C(=O)NC1(C(=O)O)CC1 [Geranoyl ACCA, N-geranoyl 1-amino-cyclopropyl carboxylic acid]",tasting result,[7]; [11],Saltier Umami lingering Mouthfeel
"CCCCCCCCCCCCCCCCCC(=O)NC(CCC(N)=O)C(=O)O (centres unmarked) [C18:0-gln, N-stearoyl-Gln]",tasting result,[6],"Sweet full juicy, nice, slight enhanced sulphury"
"CCCCC/C=C\C/C=C\CCCCCCCC(=O)NCC(=O)O [C18:2-gly, N-linoleoyl-glycine]",tasting result,Test in orange beverage,"very juicy, salivating, authentic, long lasting and sweet aftertaste"
CCCCCCCC(=O)NC(CCSC)C(=O)O (centres unmarked) [C8:0-met],tasting result,[2]; 1 ppm,"green fresh, no additional body"
same,tasting result,[5]; 1 ppm,"more salty, no additional fullness"
"CCCCCC/C=C\CCCCCCCC(=O)NC(CC(C)C)C(=O)O [C16:1 leu, N-palmitenoyl-L-leucine]",tasting result,[8],Strong salty and rich
"CCCCC/C=C\C/C=C\CCCCCCCC(=O)NC(CCSC)C(=O)O (centres unmarked) [C18:2-met, N-linoleoyl-Met]",tasting result,[2]; 1 ppm,fresh nice juicy
same,tasting result,[5]; 1 ppm,"salivating salty, umami"
"CCCCCCCCCCCCCCCCCC(=O)NC(CC(=O)O)C(=O)O (centres unmarked) [C18:0-asp, N-stearoyl-Asp]",tasting result,[2]; 1 ppm,"fatty, fruity, long lasting"
same,tasting result,[5]; 1 ppm,"lot off fullness and body, less salty"
CCCCCC/C=C\CCCCCCCC(=O)NCCCC(=O)O [C16:1-gaba],tasting result,[2]; 2 ppm,"juicy, rich, full authentic"
same,tasting result,[3]; 2 ppm,"juicy, fruity, fatty, long lasting, good mouthfeel"
"CCCCCCCCCCCCCCCC(=O)NC(CCSC)C(=O)O (centres unmarked) [C16:0-met, N-palmitoyl-Met]",tasting result,[2]; 1 ppm,"fatty, full body, juicy, metallic"
same,tasting result,[5]; 1 ppm,"salty, full, nice salivating, lingering"
same,tasting result,Test in orange beverage,"slightly metallic, fresh"
CCCCCCCC/C=C\CCCCCCCC(=O)NC(CCC(N)=O)C(=O)O (centres unmarked) [C18:1-gln],tasting result,[6],"Juicy, nice, fatty aftertaste"
same,tasting result,[3]; 0.5 ppm,"more juicy, creamy, fruity long lasting"
"CCCCCCCCCC(=O)NC1(C(=O)O)CC1 [C10:0 ACCA, N-decanoyl 1-amino-cyclopropyl carboxylic acid]",tasting result,[7]; [11],More umami lingering body
same,tasting result,[7]; 0.5 PPM in chicken bouillon base,"Nice strong salty, Umami lingering body, better chicken profile"
"CCCCCC/C=C\CCCCCCCC(=O)NC(CCC(=O)O)C(=O)O (centres unmarked) [C16:1-glu, N-palmitenoyl-Glu]",tasting result,[2]; 1 ppm,"full, heavy, jammy, long lasting"
same,tasting result,[3]; 0.5 ppm,"full, fatty, creamy"
same,tasting result,[4],"full, fatty, creamy, sweet vanilla"
CCCCCCCCCCCCCCCC(=O)NCC(=O)O [C16:0-gly],tasting result,Test in orange beverage,sweet after taste juicy
"CCCCC/C=C\C/C=C\CCCCCCCC(=O)N[C@@H](C)C(=O)O [C18:2-ala, N-linoleoyl-L-alanine]",tasting result,[2]; 1 ppm,"fatty, juicy, apple skin taste"
same,tasting result,[3]; 0.5 ppm,"creamy, fruity, juicy, green, long lasting, strawberry"
same,tasting result,[1],"enhanced sulfur note, powdery, soft peach skin like, authentic peach, slight raspberry note"
"CCCCC/C=C\C/C=C\CCCCCCCC(=O)NC(CO)C(=O)O (centres unmarked) [C18:2-ser, N-linoleoyl-Ser]",tasting result,[2]; 1 ppm,"apple note, less acidic, juicy"
same,tasting result,[5]; 1 ppm,"more umami, slightly more salty, sweet"
same,tasting result,Test in orange beverage,"very fresh, authentic, slightly less sweet, more juicy"
CCCCCCCC/C=C\CCCCCCCC(=O)NCCC(=O)O [C18:1-beta ala],tasting result,[2]; 2 ppm,"more juicy, longlasting"
same,tasting result,[5]; 2 ppm,more salty salivating umami
"CCCCCCCCCCCCCCCCCC(=O)N[C@@H](CO)C(=O)O [C18:0-ser, N-stearoyl-Ser]",tasting result,[2]; 1 ppm,"nice sweet, pineapple, long lasting"
same,tasting result,[5]; 1 ppm,"more salty, richer, more umami"
"CCCCCCCCCCCCCCCC(=O)NC(CCC(=O)O)C(=O)O (centres unmarked) [C16:0-glu, N-palmitoyl-Glu]",tasting result,[2]; 1 ppm,slightly more juicy impact
same,tasting result,[4],"ice cream like, sweet, very full"
same,tasting result,[9],"sweet, fatty cocoa, sulphur is enhanced, enhanced nib note"
same,tasting result,[10],fatty long lasting
same,tasting result,[1],"fruity, nice juicy, sweet, soft peach skin"
"CCCCC/C=C\C/C=C\CCCCCCCC(=O)N[C@H](C(=O)O)C(C)C [C18:2-val, N-linoleoyl-L-valine]",tasting result,[8],"more body and mouthfeel, more umami"
same,tasting result,[2]; 1 ppm,"ripe, very juicy nice, full body, long lasting"
same,tasting result,[5]; 1 ppm,"more umami, salivating, salty"
"CCCCC/C=C\C/C=C\CCCCCCCC(=O)NC1(C(=O)O)CC1 [C18:2 ACCA, N-linoleoyl 1-amino-cyclopropyl carboxylic acid]",tasting result,[7]; [11],"Creamy, full body, more fatty chicken"
CCCCC/C=C\C/C=C\CCCCCCCC(=O)NCCC(=O)O [C18:2-beta ala],tasting result,[2]; 2 ppm,"full long lasting nice juicy, almost a bit salty"
same,tasting result,[5]; 2 ppm,"salty, savoury, full"
CCCCCCCC/C=C\CCCCCCCC(=O)NC(CC(=O)O)C(=O)O (centres unmarked) [C18:1-asp],tasting result,[2]; 1 ppm,juicy fruit like
same,tasting result,[5]; 1 ppm,not special
"CCCCCCCCCCCCCCCC(=O)N[C@@H](CC(C)C)C(=O)O [C16:0-leu, N-palmitoyl-L-leucine]",tasting result,[2]; 2 ppm,"very fruity, ripe mango taste, strawberry note"
"CCCCCCCC/C=C\CCCCCCCC(=O)N[C@@H](CC(C)C)C(=O)O [C18:1-leu, N-oleoyl-L-leucine]",tasting result,[2]; 2 ppm,"very long lasting, ripe, fruity, juicy"
"CCCCCCCC/C=C\CCCCCCCC(=O)N[C@H](C(=O)O)C(C)C [C18:1-val, N-oleoyl-L-valine]",tasting result,[1],"tropical, fatty, skin, juicy"
